Data reported in patent US6706740B2, “Fungicidal heterocyclic aromatic amides and their compositions, methods of use and preparation” (Dow AgroSciences LLC, priority 1999, dated 2004).

System: Mycosphaerella graminicola (Septoria tritici—SEPTTR)
Test: In vitro fungal growth inhibition, Mycosphaerella graminicola (SEPTTR)
Assay type: cell-based
Conditions: Zymoseptoria tritici; 25 ppm in growth medium; read-out: SEPTTR in vitro Growth Inhibition
For `CCC(=O)Oc1c(OC)ccnc1C(=O)N[C@H]1COC(=O)[C@H](Cc2ccccc2)[C@@H](OC(=O)C(C)C)[C@H](C)OC1=O` [Compound 598], the inhibition at 25 ppm was > 80%. With `Cc1ccc(CNC(=O)c2ncccc2O)cc1` [Compound 223] the inhibition at 25 ppm was < 80%. For `COCCC(=O)Oc1c(OC)ccnc1C(=O)Nc1cccc(NC(=O)c2ccc(C(F)(F)F)cc2)c1` [Compound 718], the inhibition at 25 ppm was < 80%. For `Cc1ccnc(C(=O)NC2CC(C)(C)CC(C)(C)C2)c1O` [Compound 236], the inhibition at 25 ppm was < 80%.

System: Ustilago maydis (USTIMA)
Test: microbe, parasite or virus in culture
Assay type: cell-based
Conditions: Mycosarcoma maydis, read-out: USTIMA in vitro Growth Inhibition
In the case of `CCC(=O)Oc1c(OC)ccnc1C(=O)N[C@H]1COC(=O)[C@H](Cc2ccccc2)[C@@H](OC(=O)C(C)C)[C@H](C)OC1=O` [Compound 598], the inhibition at 25 ppm is reported as < 80%. In the case of `Cc1ccc(CNC(=O)c2ncccc2O)cc1` [Compound 223], the inhibition at 25 ppm is reported as > 80%. With `COCCC(=O)Oc1c(OC)ccnc1C(=O)Nc1cccc(NC(=O)c2ccc(C(F)(F)F)cc2)c1` [Compound 718] the inhibition at 25 ppm was < 80%. With `Cc1ccnc(C(=O)NC2CC(C)(C)CC(C)(C)C2)c1O` [Compound 236] the inhibition at 25 ppm was < 80%.

System: Magnaporthe grisea (Pyricularia oryzae—PYRIOR)
Test: microbe, parasite or virus in culture
Assay type: cell-based
Conditions: Pyricularia oryzae, read-out: PYRIOR in vitro Growth Inhibition
With `CCC(=O)Oc1c(OC)ccnc1C(=O)N[C@H]1COC(=O)[C@H](Cc2ccccc2)[C@@H](OC(=O)C(C)C)[C@H](C)OC1=O` [Compound 598] the inhibition at 25 ppm was < 80%. With `Cc1ccc(CNC(=O)c2ncccc2O)cc1` [Compound 223] the inhibition at 25 ppm was > 80%. For `COCCC(=O)Oc1c(OC)ccnc1C(=O)Nc1cccc(NC(=O)c2ccc(C(F)(F)F)cc2)c1` [Compound 718], the inhibition at 25 ppm was < 80%. For `Cc1ccnc(C(=O)NC2CC(C)(C)CC(C)(C)C2)c1O` [Compound 236], the inhibition at 25 ppm was < 80%.

System: Puccinia recondita—PUCCRT
Test: Brown Rust of Wheat, in vivo whole plant, 24 Hour Protectant
Conditions: 100 ppm spray, wheat, 24 hour protectant, % control of fungal infection vs untreated plants
With `CCC(=O)Oc1c(OC)ccnc1C(=O)N[C@H]1COC(=O)[C@H](Cc2ccccc2)[C@@H](OC(=O)C(C)C)[C@H](C)OC1=O` [Compound 598] the “PUCCRT in vivo 1 Day Protectant” value was “+ +”.

Same assay, conditions: Puccinia; 100 ppm spray, 24 hour protectant, wheat; control of fungal infection vs untreated plants; read-out: PUCCRT in vivo 1 Day Protectant
With `Cc1ccc(CNC(=O)c2ncccc2O)cc1` [Compound 223] the pest or weed control at 100 ppm was < 25%. In the case of `Cc1ccnc(C(=O)NC2CC(C)(C)CC(C)(C)C2)c1O` [Compound 236], the pest or weed control at 100 ppm is reported as < 25%.

Same assay, conditions: Puccinia; 100 ppm spray, wheat, 24 hour protectant, % control of fungal infection vs untreated plants; read-out: PUCCRT in vivo 1 Day Protectant
For `COCCC(=O)Oc1c(OC)ccnc1C(=O)Nc1cccc(NC(=O)c2ccc(C(F)(F)F)cc2)c1` [Compound 718], the pest or weed control at 100 ppm was 25 to 74%.

System: Stagonospora nodorum (Leptosphaeria nodorum—LEPTNO)
Test: In vitro fungal growth inhibition, Stagonospora nodorum (LEPTNO)
Assay type: cell-based
Conditions: Leptosphaeria; 25 ppm in growth medium; read-out: LEPTNO in vitro Growth Inhibition
With `CCC(=O)Oc1c(OC)ccnc1C(=O)N[C@H]1COC(=O)[C@H](Cc2ccccc2)[C@@H](OC(=O)C(C)C)[C@H](C)OC1=O` [Compound 598] the inhibition at 25 ppm was > 80%. In the case of `Cc1ccc(CNC(=O)c2ncccc2O)cc1` [Compound 223], the inhibition at 25 ppm is reported as > 80%. For `COCCC(=O)Oc1c(OC)ccnc1C(=O)Nc1cccc(NC(=O)c2ccc(C(F)(F)F)cc2)c1` [Compound 718], the inhibition at 25 ppm was < 80%. For `Cc1ccnc(C(=O)NC2CC(C)(C)CC(C)(C)C2)c1O` [Compound 236], the inhibition at 25 ppm was > 80%.

System: Leptosphaeria nodorum—LEPTNO
Test: Glume Blotch of Wheat, in vivo whole plant, 24 Hour Protectant
Conditions: 100 ppm spray, wheat, 24 hour protectant, % control of fungal infection vs untreated plants
For `CCC(=O)Oc1c(OC)ccnc1C(=O)N[C@H]1COC(=O)[C@H](Cc2ccccc2)[C@@H](OC(=O)C(C)C)[C@H](C)OC1=O` [Compound 598], the “LEPTNO in vivo 1 Day Protectant” value was “+ +”.

Same assay, conditions: Leptosphaeria; 100 ppm spray, 24 hour protectant, wheat; control of fungal infection vs untreated plants; read-out: LEPTNO in vivo 1 Day Protectant
For `Cc1ccc(CNC(=O)c2ncccc2O)cc1` [Compound 223], the pest or weed control at 100 ppm was < 25%. For `Cc1ccnc(C(=O)NC2CC(C)(C)CC(C)(C)C2)c1O` [Compound 236], the pest or weed control at 100 ppm was < 25%.

Same assay, conditions: Leptosphaeria; 100 ppm spray, wheat, 24 hour protectant, % control of fungal infection vs untreated plants; read-out: LEPTNO in vivo 1 Day Protectant
Work on `COCCC(=O)Oc1c(OC)ccnc1C(=O)Nc1cccc(NC(=O)c2ccc(C(F)(F)F)cc2)c1` [Compound 718] yielded a pest or weed control at 100 ppm of 25 to 74%.

System: Erysiphe graminis—ERYSGT
Test: Powdery Mildew of Wheat, in vivo whole plant, 24 Hour Protectant
Conditions: 100 ppm spray, wheat, 24 hour protectant, % control of fungal infection vs untreated plants
In the case of `CCC(=O)Oc1c(OC)ccnc1C(=O)N[C@H]1COC(=O)[C@H](Cc2ccccc2)[C@@H](OC(=O)C(C)C)[C@H](C)OC1=O` [Compound 598], the “ERYSGT in vivo 1 Day Protectant” value is reported as “+ +”.

Same assay, conditions: Erysiphe; 100 ppm spray, 24 hour protectant, wheat; control of fungal infection vs untreated plants; read-out: ERYSGT in vivo 1 Day Protectant
With `Cc1ccc(CNC(=O)c2ncccc2O)cc1` [Compound 223] the pest or weed control at 100 ppm was < 25%. In the case of `Cc1ccnc(C(=O)NC2CC(C)(C)CC(C)(C)C2)c1O` [Compound 236], the pest or weed control at 100 ppm is reported as < 25%.

Same assay, conditions: Erysiphe; 100 ppm spray, wheat, 24 hour protectant, % control of fungal infection vs untreated plants; read-out: ERYSGT in vivo 1 Day Protectant
For `COCCC(=O)Oc1c(OC)ccnc1C(=O)Nc1cccc(NC(=O)c2ccc(C(F)(F)F)cc2)c1` [Compound 718], the pest or weed control at 100 ppm was < 25%.

System: Septoria tritici—SEPTTR
Test: Leaf Blotch of Wheat, in vivo whole plant, 24 Hour Protectant
Conditions: 100 ppm spray, wheat, 24 hour protectant, % control of fungal infection vs untreated plants
With `CCC(=O)Oc1c(OC)ccnc1C(=O)N[C@H]1COC(=O)[C@H](Cc2ccccc2)[C@@H](OC(=O)C(C)C)[C@H](C)OC1=O` [Compound 598] the “SEPTTR in vivo 1 Day Protectant” value was “+ +”. For `COCCC(=O)Oc1c(OC)ccnc1C(=O)Nc1cccc(NC(=O)c2ccc(C(F)(F)F)cc2)c1` [Compound 718], the “SEPTTR in vivo 1 Day Protectant” value was “+ +”.

Same assay, conditions: Zymoseptoria tritici, 24 h, 100 ppm spray, 24 hour protectant, wheat; control of fungal infection vs untreated plants; read-out: SEPTTR in vivo 1 Day Protectant
With `Cc1ccc(CNC(=O)c2ncccc2O)cc1` [Compound 223] the pest or weed control at 100 ppm was < 25%. In the case of `Cc1ccnc(C(=O)NC2CC(C)(C)CC(C)(C)C2)c1O` [Compound 236], the pest or weed control at 100 ppm is reported as < 25%.

System: Phytophthora infestans (PHYTIN)
Test: microbe, parasite or virus in culture
Assay type: cell-based
Conditions: Phytophthora infestans, read-out: PHYTIN in vitro Growth Inhibition
In the case of `CCC(=O)Oc1c(OC)ccnc1C(=O)N[C@H]1COC(=O)[C@H](Cc2ccccc2)[C@@H](OC(=O)C(C)C)[C@H](C)OC1=O` [Compound 598], the inhibition at 25 ppm is reported as < 80%. In the case of `Cc1ccc(CNC(=O)c2ncccc2O)cc1` [Compound 223], the inhibition at 25 ppm is reported as > 80%. With `COCCC(=O)Oc1c(OC)ccnc1C(=O)Nc1cccc(NC(=O)c2ccc(C(F)(F)F)cc2)c1` [Compound 718] the inhibition at 25 ppm was < 80%. For `Cc1ccnc(C(=O)NC2CC(C)(C)CC(C)(C)C2)c1O` [Compound 236], the inhibition at 25 ppm was < 80%.

System: Phytophthora infestans—PHYTIN
Test: whole plant or invertebrate
Assay type: in vivo
Conditions: Phytophthora, in Solanum lycopersicum, 24 h, read-out: PHYTIN in vivo 1 Day Protectant
For `CCC(=O)Oc1c(OC)ccnc1C(=O)N[C@H]1COC(=O)[C@H](Cc2ccccc2)[C@@H](OC(=O)C(C)C)[C@H](C)OC1=O` [Compound 598], the pest or weed control at 100 ppm was < 25%. In the case of `Cc1ccc(CNC(=O)c2ncccc2O)cc1` [Compound 223], the pest or weed control at 100 ppm is reported as < 25%. In the case of `COCCC(=O)Oc1c(OC)ccnc1C(=O)Nc1cccc(NC(=O)c2ccc(C(F)(F)F)cc2)c1` [Compound 718], the pest or weed control at 100 ppm is reported as < 25%. With `Cc1ccnc(C(=O)NC2CC(C)(C)CC(C)(C)C2)c1O` [Compound 236] the pest or weed control at 100 ppm was < 25%.

System: not given
Test: not given
Conditions: not given
In the case of `CCC(=O)Oc1c(OC)ccnc1C(=O)N[C@H]1COC(=O)[C@H](Cc2ccccc2)[C@@H](OC(=O)C(C)C)[C@H](C)OC1=O` [Compound 598], the melting point is reported as 171 to 172 °C. `Cc1ccc(CNC(=O)c2ncccc2O)cc1` [Compound 223] showed a melting point of 83 to 84 °C. With `COCCC(=O)Oc1c(OC)ccnc1C(=O)Nc1cccc(NC(=O)c2ccc(C(F)(F)F)cc2)c1` [Compound 718] the melting point was 115 to 118 °C. Work on `Cc1ccnc(C(=O)NC2CC(C)(C)CC(C)(C)C2)c1O` [Compound 236] yielded a melting point of 42 to 45 °C.

System: Rhizoctonia solani (RHIZSO)
Test: microbe, parasite or virus in culture
Assay type: cell-based
Conditions: Rhizoctonia solani, read-out: RHIZSO in vitro Growth Inhibition
With `CCC(=O)Oc1c(OC)ccnc1C(=O)N[C@H]1COC(=O)[C@H](Cc2ccccc2)[C@@H](OC(=O)C(C)C)[C@H](C)OC1=O` [Compound 598] the inhibition at 25 ppm was < 80%. For `Cc1ccc(CNC(=O)c2ncccc2O)cc1` [Compound 223], the inhibition at 25 ppm was < 80%. In the case of `COCCC(=O)Oc1c(OC)ccnc1C(=O)Nc1cccc(NC(=O)c2ccc(C(F)(F)F)cc2)c1` [Compound 718], the inhibition at 25 ppm is reported as < 80%. For `Cc1ccnc(C(=O)NC2CC(C)(C)CC(C)(C)C2)c1O` [Compound 236], the inhibition at 25 ppm was < 80%.
